Test results: US10253002B2, “Compounds and methods of treating infections” (Neoculi Pty Ltd., priority 2013, dated 2019)
“And” between values parts separate entries of the source, which are not always exact repeats. Equal values may be shown once.

Legend:
Test in all cases: Broth microdilution MIC, Example 7 (NCL812 and analogues)
[1] = test system: Escherichia coli; type: cell-based; conditions: 24 hours; 1st and 2nd replicate rows
[2] = test system: Pseudomonas aeruginosa; type: cell-based; conditions: 24 hours; 1st and 2nd replicate rows
[3] = test system: VRE; type: cell-based, Enterococcus spp.; conditions: for MIC (μg/ml) at 24 hours, VRE 1: isolate VRE 1; for MIC (μg/ml) at 24 hours, VRE 1 / MIC (μg/ml) at 24 hours, VRE 2: 1st and 2nd replicate rows; for MIC (μg/ml) at 24 hours, VRE 2: isolate VRE 2; for activity against VRE among analogues: MIC testing, two VRE strains; for VRE: bioassay ranking
Protocol: (§1) Minimum inhibitory concentrations (μg/ml) were determined using the broth microdilution method recommended by the Clinical and Laboratory Standards Institute (CLSI). MIC breakpoints were determined by visual assessment and then confirmed using an ELISA plate reader, measuring absorbance levels at 600 nm. Bacterial growth (turbidity) in the wells with antimicrobial was compared with the amount of growth (turbidity) in the growth-control well (containing no antimicrobial). All isolates were tested in duplicate, if there was a difference of greater than one two-fold dilution in the results, the test was repeated a third time. The purity of the isolates was closely monitored during testing by subculturing the prepared bacterial inoculum onto SBA (sheep blood agar). […] The MIC50, MIC20 and MIC range (minimum and maximum) were calculated for each of the bacterial groups.
(§2) MICs were determined against two MRSA strains, two VRE strains and one strain each of E. coli and Pseudomonas aeruginosa.

[4] = test system: MRSA; type: cell-based, Staphylococcus aureus; conditions: for MIC (μg/ml) at 24 hours, MRSA 1: isolate MRSA 1; for MIC (μg/ml) at 24 hours, MRSA 1 / MIC (μg/ml) at 24 hours, MRSA 2: 1st and 2nd replicate rows; for MIC (μg/ml) at 24 hours, MRSA 2: isolate MRSA 2; for activity against MRSA among analogues: MIC testing, two MRSA strains
Protocol: as §1, §2

Row | Structure (SMILES) | activity against VRE among analogues [3] | activity against MRSA among analogues [4] | further results
1 | O=C(N/N=C/c1ccc(Cl)cc1)N/N=C/c1ccc(Cl)cc1 [NCL001] | – | – | MIC (μg/ml) at 24 hours, E. coli [1]: >128 µg/mL and >126 µg/mL; MIC (μg/ml) at 24 hours, P. aeruginosa [2]: >128 µg/mL; MIC (μg/ml) at 24 hours, VRE 1 [3]: >128 µg/mL; MIC (μg/ml) at 24 hours, VRE 2 [3]: >128 µg/mL; MIC (μg/ml) at 24 hours, MRSA 1 [4]: >128 µg/mL; MIC (μg/ml) at 24 hours, MRSA 2 [4]: >128 µg/mL
2 | O=C(N/N=C/c1ccccc1Cl)N/N=C/c1ccccc1Cl [NCL002] | – | – | MIC (μg/ml) at 24 hours, E. coli [1]: >128 µg/mL; MIC (μg/ml) at 24 hours, P. aeruginosa [2]: >128 µg/mL; MIC (μg/ml) at 24 hours, VRE 1 [3]: >128 µg/mL; MIC (μg/ml) at 24 hours, VRE 2 [3]: >128 µg/mL; MIC (μg/ml) at 24 hours, MRSA 1 [4]: >128 µg/mL; MIC (μg/ml) at 24 hours, MRSA 2 [4]: >128 µg/mL
3 | O=C(N/N=C/c1ccc(F)cc1)N/N=C/c1ccc(F)cc1 [NCL003] | – | – | MIC (μg/ml) at 24 hours, E. coli [1]: >128 µg/mL; MIC (μg/ml) at 24 hours, P. aeruginosa [2]: >128 µg/mL; MIC (μg/ml) at 24 hours, VRE 1 [3]: >128 µg/mL; MIC (μg/ml) at 24 hours, VRE 2 [3]: >128 µg/mL; MIC (μg/ml) at 24 hours, MRSA 1 [4]: >128 µg/mL; MIC (μg/ml) at 24 hours, MRSA 2 [4]: >128 µg/mL
4 | O=C(N/N=C/c1cccc(F)c1)N/N=C/c1cccc(F)c1 [NCL004] | – | – | MIC (μg/ml) at 24 hours, E. coli [1]: >128 µg/mL; MIC (μg/ml) at 24 hours, P. aeruginosa [2]: >128 µg/mL; MIC (μg/ml) at 24 hours, VRE 1 [3]: >128 µg/mL; MIC (μg/ml) at 24 hours, VRE 2 [3]: >128 µg/mL; MIC (μg/ml) at 24 hours, MRSA 1 [4]: >128 µg/mL; MIC (μg/ml) at 24 hours, MRSA 2 [4]: >128 µg/mL
5 | O=C(N/N=C/c1ccccc1F)N/N=C/c1ccccc1F [NCL005] | – | – | MIC (μg/ml) at 24 hours, E. coli [1]: >128 µg/mL; MIC (μg/ml) at 24 hours, P. aeruginosa [2]: >128 µg/mL; MIC (μg/ml) at 24 hours, VRE 1 [3]: >128 µg/mL; MIC (μg/ml) at 24 hours, VRE 2 [3]: >128 µg/mL; MIC (μg/ml) at 24 hours, MRSA 1 [4]: >128 µg/mL; MIC (μg/ml) at 24 hours, MRSA 2 [4]: >128 µg/mL
6 | COc1ccc(/C=N/NC(=O)N/N=C/c2ccc(OC)cc2)cc1 [NCL006] | – | – | MIC (μg/ml) at 24 hours, E. coli [1]: >128 µg/mL; MIC (μg/ml) at 24 hours, P. aeruginosa [2]: >128 µg/mL; MIC (μg/ml) at 24 hours, VRE 1 [3]: >128 µg/mL; MIC (μg/ml) at 24 hours, VRE 2 [3]: >128 µg/mL; MIC (μg/ml) at 24 hours, MRSA 1 [4]: >128 µg/mL; MIC (μg/ml) at 24 hours, MRSA 2 [4]: >128 µg/mL
7 | N#Cc1ccc(/C=N/NC(=O)N/N=C/c2ccc(C#N)cc2)cc1 [NCL007] | – | – | MIC (μg/ml) at 24 hours, E. coli [1]: >128 µg/mL; MIC (μg/ml) at 24 hours, P. aeruginosa [2]: >128 µg/mL; MIC (μg/ml) at 24 hours, VRE 1 [3]: >128 µg/mL; MIC (μg/ml) at 24 hours, VRE 2 [3]: >128 µg/mL; MIC (μg/ml) at 24 hours, MRSA 1 [4]: >128 µg/mL; MIC (μg/ml) at 24 hours, MRSA 2 [4]: >128 µg/mL
8 | COc1cc(/C=N/NC(=N)N/N=C/c2ccc(O)c(OC)c2)ccc1O.Cl [NCL117] | greatest activity | greatest activity | –
9 | C#Cc1cccc(C=NNC(=N)NN=Cc2cccc(C#C)c2)c1.Cl [NCL126] | greatest activity | – | –
10 | Cl.N=C(NN=Cc1cccc(Br)c1)NN=Cc1cccc(Br)c1 [NCL131] | greatest activity | – | –
11 | CCCCc1ccc(C=NNC(=N)NN=Cc2ccc(CCCC)cc2)cc1.Cl [NCL136] | greatest activity | greatest activity | –
12 | Cl.N=C(NN=CC(=Cc1ccccc1)c1ccccc1)NN=CC(=Cc1ccccc1)c1ccccc1 [NCL138] | – | greatest activity | –
13 | CSc1ccc(C=NNC(=N)NN=Cc2ccc(SC)cc2)cc1.Cl [NCL140] | greatest activity | greatest activity | VRE [3]: 5 µg/mL
14 | Cl.N=C(NN=Cc1csc2ccc(Cl)cc12)NN=Cc1csc2ccc(Cl)cc12 [NCL141] | greatest activity | – | –
15 | COc1ccc(C=CC=NNC(=N)NN=CC=Cc2ccc(OC)cc2)cc1.Cl [NCL150] | – | greatest activity | –
16 | Cl.N=C(NN=Cc1ccc(O)cc1)NN=Cc1ccc(O)cc1 [NCL151] | greatest activity | greatest activity | –
17 | Cl.N=C(NN=C(c1ccc(Cl)cc1O)C1CCCC1)NN=C(c1ccc(Cl)cc1O)C1CCCC1 [NCL159] | greatest activity | greatest activity | –

Row | Structure (SMILES) | activity against VRE among analogues [3] | activity against MRSA among analogues [4] | further results
18 | Cl.N=C(NN=Cc1ccc(OC(F)(F)F)cc1)NN=Cc1ccc(OC(F)(F)F)cc1 [NCL160] | greatest activity | greatest activity | –
19 | CC(=NNC(=N)NN=C(C)c1ccc(N2CCNCC2)cc1)c1ccc(N2CCNCC2)cc1.Cl [NCL161] | greatest activity | greatest activity | –
20 | Cl.N=C(NN=Cc1ccc(SC(F)(F)F)cc1)NN=Cc1ccc(SC(F)(F)F)cc1 [NCL166] | greatest activity | greatest activity | –
21 | CC(=NNC(=N)NN=C(C)c1ccccn1)c1ccccn1.Cl [NCL172] | – | greatest activity | –
22 | Cl.N=C(N/N=C/c1ccc(Cl)nc1)N/N=C/c1ccc(Cl)nc1 [NCL175] | greatest activity | – | –
23 | C/C(=N\Nc1cc(N/N=C(\C)c2ccc(Cl)cc2)ncn1)c1ccc(Cl)cc1 [NCL178] | greatest activity | greatest activity | –
24 | OC/C(=N\Nc1cc(N/N=C(\CO)c2ccc(Cl)cc2)ncn1)c1ccc(Cl)cc1 [NCL180] | greatest activity | greatest activity | VRE [3]: 32 µg/mL
25 | Clc1ccc(/C=N/Nc2cc(N/N=C/c3ccc(Cl)cc3)ncn2)cc1 [NCL181] | greatest activity | greatest activity | –
26 | CC(Nc1cc(Cl)nc(N)n1)c1ccccc1 (centres unmarked) [NCL182] | greatest activity | greatest activity | –
27 | CC(Nc1cc(NC(C)c2ccccc2)ncn1)c1ccccc1 (centres unmarked) [NCL183] | greatest activity | greatest activity | –
28 | CC(Nc1cc(NC(C)c2ccccc2)nc(N)n1)c1ccccc1 (centres unmarked) [NCL184] | greatest activity | greatest activity | VRE [3]: 32 µg/mL
29 | C/C(=N\Nc1cc(N/N=C(\C)c2ccc(Cl)cc2)ncn1)c1ccc(Cl)cc1.Cl [NCL185] | greatest activity | greatest activity | –
30 | CC(Nc1cnc(NC(C)c2ccc(Cl)cc2)cn1)c1ccc(Cl)cc1 (centres unmarked) [NCL186] | greatest activity | greatest activity | –
31 | Cl.Clc1ccc(/C=N/Nc2cc(N/N=C/c3ccc(Cl)cc3)ncn2)cc1 [NCL187] | greatest activity | greatest activity | –
32 | Cl.OC/C(=N\Nc1cc(N/N=C(\CO)c2ccc(Cl)cc2)ncn1)c1ccc(Cl)cc1 [NCL189] | greatest activity | greatest activity | –
33 | C/C(=N\NC(=N)N)c1ccc(Cl)cc1.Cl [NCL191] | greatest activity | greatest activity | –
34 | Cl.N=C(N)NN=C(C(=O)O)c1ccccc1 [NCL192] | greatest activity | greatest activity | –
